Measurements as given in patent publication US4997850A, “Treating agent for osteroarthritis” (Kureha Kagaku Kogyo Kabushiki Kaisha, priority 1989, dated 1991).

What was measured:
[1] = Acute toxicity (LD50) of ACP in mice; format: in vivo; conditions: for LD50 at 168 h: in vivo, male; for LD50: female, 10080 min
Experimental: (§1) For oral administration, a suspension of ACP dispersed in an aqueous solution of 0.5% methylcellulose and 0.4% Tween 80 (nonionic surfactant, manufactured by TOKYO KASEI, Co., Ltd.) was prepared and administered to the animals via a stomach sonde. For subcutaneous administration, a suspension of ACP dispersed in an aqueous physiological saline solution containing 0.5% of carboxymethyl cellulose sodium (hereinafter referred to as "CMC") was prepared and injected to the animals with a syringe.

[2] = Acute toxicity (LD50) of ACP in rats; format: in vivo; conditions: for LD50 at 168 h: in vivo, male; for LD50: female, 10080 min
Experimental: as §1

[3] = tested on: IL-1α production in human synovial cells; assay: Inhibition of IL-1α production in human synovial cells; format: cell-based; conditions: TPA and A 23187 stimulation, 40 hours
Experimental: (§2) Human synovial membrane obtained at an operation was treated with collagenase to obtain synovial cells, which were subcultured several times and inoculated on a 12-well culture dish. On reaching to confluence, the cells were provided to the test described below. The synovial cells produce IL-1 but release only a little amount and accordingly are appropriate cells to study an inhibition or an acceleration of IL-1 intracellular production.
(§3) Each DMSO (dimethylsulfoxide) solution containing one of ACP, PAL and PAC separately in a concentration of 400 times that of the final test and DMSO solution not containing any of the compound as a control, were diluted to 40 times in its volume with a medium containing fetal bovine serum (hereinafter referred to as "FBS") [Ham Medium]. 100 μl of the diluted solution was added to each well and further, 800 μl of the medium [Ham] was added to each well. […] The concentration of TPA and the ionophore in the medium were adjusted so that their final concentration in the well became 0.1 μg/ml and 0.2 μg/ml, respectively and a production of IL-1 was stimulated. Final volume of the liquid (medium) per well was 1 ml/well. After 40 hours of culture, liquid portion was removed from each well and 1 ml of a Ham medium was added to the remaining cells in each well. Freeze-thawing was repeated on the medium containing the cells several times to destroy all the cells in the medium and supernatants containing intracellular substances were obtained by centrifugation. IL-1α and IL-1β in the supernatant were determined by ELISA method using a prescribed enzyme-antibody-complex (manufactured by OHTSUKA SEIYAKU, Co., Ltd.) as intracellular IL-1s. [Refer to ENSHO, vol.

[4] = tested on: IL-1β production in human synovial cells; assay: Inhibition of IL-1β production in human synovial cells; format: cell-based; conditions: TPA and A 23187 stimulation, 40 hours
Experimental: as §2, §3

[5] = tested on: IL-1 release from human monocyte; assay: Inhibition of IL-1 (IL-1α and IL-1β) release from human monocyte; format: cell-based; conditions: Homo sapiens, Monocyte, read-out: concentration at which the release of IL-1 is significantly inhibited; LPS 10 μg/ml, 42 hours
Experimental: Monocyte were isolated from human venous blood by density-gradient centrifugation using a Ficoll-paque solution and obtained the cells having a purity of not less than 95% by purifying with a monocyte-separating plate. After dispersing the cells in a medium, RPMI 1640, containing 10% of FBS, the monocyte were inoculated in a culture dish in a ratio of 10^6 cells/3 ml/well and cultured under an atmosphere containing 5% CO2 at 37° C. for 30 minutes. Then, each 15 μl of DMSO solution of one of ACP, PAL and PAC was added to each well (a final DMSO concentration of 0.5%) and 30 minutes later a lipopolysaccharide (hereinafter referred to as "LPS"), a substance to stimulate IL-1 production, was added at a final LPS concentration of 10 μg/ml and they were cultured for 42 hours. Then, the reacted culture medium was recovered and accompanied cells with the medium were separated by centrifugation and obtained the supernatant free of cell. IL-1α and IL-1β released from the cells were measured by ELISA method in the same manner as in item (i) above.

[6] = tested on: IL-1 release from cultured cartilage cells; assay: Inhibition of IL-1 release from cultured cartilage cells; format: cell-based, rabbit; conditions: 3.3 μM; TPA and A 23187 stimulation, 24 hours
Experimental: Cartilages were aseptically taken out from knee and shoulder joints of young rabbit, treated with a Ham medium containing 0.2% collagenase and separated each other into single cells. After washed two times with a Ham medium containing 10% FBS, the cells were dispersed into the Ham medium containing 10% FBS at a concentration of 10^5 cells/ml. […] After 24 hours of cultivation, IL-1 released into each of the supernatants was measured by a bioassay applying an incorporated amount of ^3 H-thymidine (^3 H-TdR) as an index. […] In the Figure, "Intact" means a case TPA and the ionophore were not added and accordingly no stimulation of IL-1 release was given.

[7] = tested on: proteoglycan (PG) in cultured cartilage cells; assay: Synthesis, release and remaining amount of proteoglycan (PG) in cultured cartilage cells; format: cell-based, rat
Experimental: Costal cartilage was aseptically taken out from male SD rats of 4 weeks age, enzymatically treated to separate it into single cells, then inoculated into a 12-well culture dish and cultured under an atmosphere containing 5% CO2 at 37° C. After the chondrocytes had been grown to confluence, 1 to 10 μM of PAL or 10 to 100 μM of PAC was added and three hours later, 2 μCi of Na2^35 SO4 was further added to each well. Twenty four hours later, the synthesis amount in, release amount from and remaining amount of PG in the matrix were determined using amount of ^35 S as an index. […] In the Figures, the PG release in the control was defined as 100%. […] In FIGS. 4(a), 4(b) and 4(c), the released amount of PG means the amount representing the PG degraded in and released from cartilage matrixes, which was calculated on a basis of ^35 S in the culture medium. The remaining amount of PG means the PG not degraded in the matrixes and was also calculated in the same way as above. Sum of the released and the remaining amounts of PG is thought to be a synthesized PG.

[8] = tested on: proteoglycan (PG) release under IL-1α; assay: Proteoglycan (PG) release from prelabelled cultured cartilage matrix with addition of IL-1α; format: cell-based; conditions: 20 units of IL-1α
Experimental: Further, to a cultured cartilage matrix, in which PG is prelabelled in advance with 1 μCi of Na2^35 SO4, 20 units of IL-1α was added to each group including control group and 10 μM of PAL, 100 μM of PAL or 10 μM of ACP was added to each test group and studied the effect of each compound to the PG release from the cells.

leukocyte migration = conditions: cited from earlier work
granuloma proliferation = conditions: cited from earlier work
adjuvant arthritis = conditions: in vivo; cited from earlier work
[9] = in vivo; cited from earlier work
[10] = Acute toxicity (LD50) of PAL in female Jcl:ICR mice; conditions: mouse, in vivo
Experimental: For oral administration, a suspension of PAL dispersed in an aqueous solution of 0.2% CMC was prepared (a part of PAL was dissolved in the solution) and administered to the animals via a stomach sonde. For intraperitoneal administration, a suspension of PAL dispersed in an aqueous physiological saline solution was prepared (a part of PAL was dissolved in the solution) and injected to the animals with a syringe.

[11] = tested on: proteoglycan (PG) release under IL-1α; assay: Proteoglycan (PG) release from prelabelled cultured cartilage matrix with addition of IL-1α; format: cell-based; conditions: 20 units of IL-1α, compared to control without IL-1; prelabelled 35S as 100%

Q: What does the source list for `CC(=O)Oc1ccc(C(OC(C)=O)OC(C)=O)cc1OC(C)=O` [ACP, 3,4-diacetoxybenzylidene diacetate]?
A: LD50 at 168 h ([1]; sc, subcutaneous, Jcl:ICR mouse): > 4000 mg/kg; LD50 at 168 h ([1]; oral, CD-1 mouse): > 5000 mg/kg; LD50 ([1]; oral, CD-1 mouse): > 5000 mg/kg; LD50 ([1]; subcutaneous, Jcl:ICR mouse): > 4000 mg/kg; LD50 at 168 h ([2]; sc, subcutaneous, Jcl:Wistar rat): > 4000 mg/kg; LD50 at 168 h ([2]; oral, Sprague-Dawley rat): > 5000 mg/kg; LD50 ([2]; oral, Sprague-Dawley rat): > 5000 mg/kg; LD50 ([2]; subcutaneous, Jcl:Wistar rat): > 4000 mg/kg; inhibiting activity of IL-1α production ([3]; 10 μM): strong inhibiting activity; inhibiting activity of IL-1β production ([4]; 10 μM): strong inhibiting activity; minimal effective concentration [5]: 0.67 µM; inhibition of IL-1 release from cartilage cells [6]: inhibit the release of IL-1; effect on PG synthesis, release and remaining amount (ACP) ([7]; compared with PAL and PAC, concentration not given): effect having similar tendency; inhibition of PG release under IL-1α ([8]; 10 μM): inhibited the release amount; suppressing activity of leukocyte migration (leukocyte migration): suppressing activity; suppressing activity of granuloma proliferation (granuloma proliferation): suppressing activity; suppressing activity of adjuvant arthritis (adjuvant arthritis): suppressing activity; toxicity to mammals including human [9]: very low toxic

Q: Which results are given for `O=Cc1ccc(O)c(O)c1` [PAL, 3,4-dihydroxybenzaldehyde]?
A: LD50 at 168 h ([10]; ip, intraperitoneal): 404 mg/kg; LD50 at 168 h ([10]; oral): 1500 mg/kg; inhibiting activity of IL-1α production ([3]; 33 μM): strong inhibiting activity; inhibiting activity of IL-1β production ([4]; 33 μM): strong inhibiting activity; minimal effective concentration [5]: 0.33 µM; inhibition of IL-1 release from cartilage cells [6]: inhibit the release of IL-1; effect on PG synthesis ([7]; PAL 1 to 10 μM, PAC 10 to 100 μM, 24 hours): no effect; inhibition of PG release ([7]; PAL 1 to 10 μM, PAC 10 to 100 μM, control release 100%): exhibited inhibiting activities on the PG release; remaining amount of PG in the matrix ([7]; PAL between 1 and 3.3 μM, PAC between 10 and 100 μM): increased in proportion to the adding amount; inhibition of PG release under IL-1α ([8]; PAL 10 μM and 100 μM): inhibited the release amount proportionally to the amount added; suppressing activity of leukocyte migration (leukocyte migration): suppressing activity; suppressing activity of granuloma proliferation (granuloma proliferation): suppressing activity; suppressing activity of adjuvant arthritis (adjuvant arthritis): suppressing activity; toxicity to mammals including human [9]: very low toxic

B1: IL-1α: interleukin 1 alpha, added to cultured cartilage matrix to increase proteoglycan release (protein, UniProt P01583 113-271, looked up)
Interleukin-1 alpha: SAPFSFLSNVKYNFMRIIKYEFILNDALNQSIIRANDQYLTAAALHNLDEAVKFDMGAYKSSKDDAKITVILRISKTQLYVTAQDEDQPVLLKEMPEIPKTITGSETNLLFFWETHGTKNYFTSVAHPNLFIATKQDYWVCLAGGPPSITDFQILENQA
Q: For B1, which “increase of PG release by IL-1α” value [11] is on record?
A: about 20%
